# From article PMC7932537, “Quantitative profiling of protease specificity” (PLoS Computational Biology, 2021)
# Tests used:
# [1] = system: MMP-2; test: N-terminomic (TMT) analysis of MMP-treated HEK293 secretome: isotopic enrichment of novel N-termini; type: biochemical, human
# Description: (§1) This was done to achieve a reasonable compromise between the false positive and false negative rates based on the statistical model developed by the authors. […] (See Methods for details).
# (§2) HEK293 cells were seeded in 150-mm tissue culture dishes (Corning) and grown to confluence. The confluent cultures were washed with PBS several times to remove serum proteins and kept in serum-free DMEM supplemented with 1 μM GM6001 for 72 hours at 37 C, 5% CO2. The conditioned media was centrifuged at 10,000 x g for 30 minutes at 4 C and concentrated ~100-fold using Centricon Plus-70 (AMD Millipore) 3-kDa m.w. cut-off ultrafilter, and the buffer was exchanged to 50 mM HEPES pH 7.0 containing 150 mM NaCl and 10 mM CaCl2 (Reaction Buffer) using a PD-10 desalting column (GE Healthcare). Aliquots containing 240 μg total protein were incubated at 37 C in the presence of 750 nM MMP2 or 9 or the Reaction Buffer alone for 2 hours. Each reaction was carried out in duplicate. The reactions were stopped by addition of 20 mM EDTA and subjected to denaturation/reduction (4M Urea and 10 mM TCEP, 1 h, 22°C) and alkylation (20 mM iodoacetamide, 30 min, 22°C, in dark). […] The TMT-labeled samples were pooled together, and subjected to TCA precipitation (20% TCA, 16 h, 4°C). Each pellet was washed with -20°C acetone, recovered in 50 mM Tris-HCl pH 8.0, and then digested with trypsin/Lys-C (Promega) for 16 h at 37°C. Digestions were stopped with 0.2% TFA and centrifuged to remove insoluble material. The supernatants were then desalted using Sep-Pak C18 cartridge (50 mg), and then lyophilized.
# (§3) Dried pooled sample was reconstituted in 20 mM ammonium formate pH ~10 and fractionated using a Waters Acquity BEH C18 column (2.1x 15 cm, 1.7 μm pore size) mounted on an M-Class Ultra Performance Liquid Chromatography (UPLC) system (Waters). […] A total of 32 fractions were collected and pooled in a non-contiguous manner into 16 total fractions. Pooled fractions were dried to completeness in a SpeedVac concentrator prior to mass spectrometry analysis.
# (§4) Dried peptide fractions were reconstituted with 2% ACN-0.1% FA and analyzed by LC-MS/MS using a Proxeon EASY nanoLC system (Thermo Fisher Scientific) coupled to a Q-Exactive Plus mass spectrometer (Thermo Fisher Scientific). […] The mass spectrometer was operated in positive data-dependent acquisition mode. MS1 spectra were measured with a resolution of 70,000 (AGC target: 1e6; mass range: 350–1700 m/z).
# (§5) The false discovery rate (FDR) filter for spectrum and protein identification was set to 1%. Carbamidomethylation of cysteines was searched as a fixed modification, while oxidation of methionines and N-terminal acetylation were searched as variable modifications. Enzyme was set to trypsin in a semispecific mode and a maximum of two missed cleavages was allowed for searching. To obtain quantification of the TMT-labeled N-termini, two independent searches were performed–one with TMT10plex MS2 N-terminal reporter quantification and the other for quantification of N-terminal and lysine sidechain.
# [2] = system: MMP-9; test: as above; type: biochemical, human; settings: for isotopic enrichment (log2(ratio)) (acc.to MMP9): HEK293 proteins; for isotopic enrichment (log2(ratio)): MMP9 cleavages in HEK293 cell proteins, determined by LC-MS/MS, log2(ratio) range (>3σ, 2σ-3σ, 1σ-2σ)
# Description: as §1, §2, §3, §4, §5
# [3] = system: MMP-9; test: Substrate phage display with NGS: relative probability (RP) of P3-P1' tetramer clusters; type: biochemical, human; settings: MMP9; RP of the substrate's P3-P1' tetramer, substrate phage display with NGS;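 further: ratio of tetramer probability after protease selection to that in naive phage library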
# [4] = target: T1, MMP-2 (Homo sapiens, UniProt P08253); test: K(obs) of individual phage substrates (set of 1369); type: biochemical; settings: MMP2; individual phage substrate from the set of 1369 peptides; hyphen in the sequence marks the cleavage position
# T1 sequence (P08253 110-660): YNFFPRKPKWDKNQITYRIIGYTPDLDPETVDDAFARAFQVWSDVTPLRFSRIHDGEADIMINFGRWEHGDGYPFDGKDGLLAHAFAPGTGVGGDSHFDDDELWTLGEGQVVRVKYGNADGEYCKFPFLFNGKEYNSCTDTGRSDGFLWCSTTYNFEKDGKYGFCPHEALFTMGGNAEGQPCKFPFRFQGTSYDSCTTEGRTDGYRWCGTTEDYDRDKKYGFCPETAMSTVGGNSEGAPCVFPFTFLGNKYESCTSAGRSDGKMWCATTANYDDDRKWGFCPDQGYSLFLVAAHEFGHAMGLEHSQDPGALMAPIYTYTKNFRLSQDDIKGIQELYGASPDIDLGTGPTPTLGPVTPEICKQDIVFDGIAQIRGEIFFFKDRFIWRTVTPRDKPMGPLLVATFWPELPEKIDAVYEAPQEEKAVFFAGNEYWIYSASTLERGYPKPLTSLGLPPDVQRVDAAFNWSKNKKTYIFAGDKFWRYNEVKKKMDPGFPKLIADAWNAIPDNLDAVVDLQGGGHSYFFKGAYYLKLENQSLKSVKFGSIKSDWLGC
# [5] = target: MMP-9 (Homo sapiens, UniProt P14780); test: as above; type: biochemical; settings: MMP9; individual phage substrate of the set of 1369 peptides; dash in sequence marks cleavage position
# [6] = MMP2 cleaved HEK293 proteins, common set of MMP2-9 selectome, LC-MS/MS
# [7] = MS detected cleavage sequence, HEK293 proteins, common MMP2-9 selectome
# [8] = MMP9, common set of MMP2-9 selectome, LC-MS/MS
# [9] = MS detected cleavage sequence, common MMP2-9 selectome
# Chain of MMP-9 (Homo sapiens, UniProt P14780) (P14780 94-707): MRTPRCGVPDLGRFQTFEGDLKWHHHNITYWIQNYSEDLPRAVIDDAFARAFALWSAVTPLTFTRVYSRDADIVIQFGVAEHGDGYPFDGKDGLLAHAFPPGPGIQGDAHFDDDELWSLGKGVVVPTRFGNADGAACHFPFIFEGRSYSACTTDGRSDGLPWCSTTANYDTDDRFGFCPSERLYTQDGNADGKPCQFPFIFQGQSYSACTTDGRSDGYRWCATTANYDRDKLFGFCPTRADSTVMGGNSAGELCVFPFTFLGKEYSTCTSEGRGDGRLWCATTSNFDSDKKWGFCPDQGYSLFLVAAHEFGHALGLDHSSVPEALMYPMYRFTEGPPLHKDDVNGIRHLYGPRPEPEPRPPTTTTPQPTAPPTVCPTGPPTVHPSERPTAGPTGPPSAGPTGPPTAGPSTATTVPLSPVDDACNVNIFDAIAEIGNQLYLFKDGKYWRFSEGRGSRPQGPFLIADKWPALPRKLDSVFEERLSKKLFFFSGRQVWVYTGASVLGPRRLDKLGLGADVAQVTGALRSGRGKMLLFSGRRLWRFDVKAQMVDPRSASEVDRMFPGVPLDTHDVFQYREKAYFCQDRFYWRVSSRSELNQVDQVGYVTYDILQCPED
Substance,"isotopic enrichment (log2(ratio)) (acc.to MMP2) [1, 6]","isotopic enrichment (log2(ratio)) (acc.to MMP2) [1, 7]","isotopic enrichment (log2(ratio)) (acc.to MMP9) [2, 8]",isotopic enrichment (log2(ratio)) [2],"isotopic enrichment (log2(ratio)) (acc.to MMP9) [2, 9]",relative probability (RP) [3],Kobs [4] [M⁻¹ s⁻¹],Kobs [5] [M⁻¹ s⁻¹]
AGAAA-LSSASS,2.491,2.491 log2(ratio),3.911,3.911,3.911 log2(ratio),–,–,–
ARPNS-MVVEHP,2.409,2.409 log2(ratio),3.297,3.297,3.297 log2(ratio),–,–,–
TDPSK-LDSGKE,1.911,1.911 log2(ratio),2.9782,2.9782,2.9782 log2(ratio),–,–,–
GMPGE-ISEHEG,2.198,2.198 log2(ratio),2.131,2.131,2.131 log2(ratio),–,–,–
MSPQL-LYDAAP,–,0.5656 log2(ratio),–,1.465,1.465 log2(ratio),–,–,–
ISPGM-IKDCGA,1.183,1.183 log2(ratio),2.036,2.036,2.036 log2(ratio),–,–,–
VNPVL-LSGPEA,1.599,1.599 log2(ratio),2.457,2.457,2.457 log2(ratio),–,–,–
TPPVE-LTASG,–,–,–,–,–,35.1044,12792.1,12792.1
IGVRQ-LTASG,–,–,–,–,–,23.9228,3536.02,12792.1
GMVRG-VTASG,–,–,–,–,–,13.8249,7386.83,2761.81
SGPRF-LIGTA,–,–,–,–,–,42.4535,3964.21,6131.32
GGPAP-MWTAS,–,–,–,–,–,45.1106,2476.66,5667.28
QPPHA-FTASG,–,–,–,–,–,39.4048,12792.1,12792.1
SGPYS-WQVTA,–,–,–,–,–,33.8051,1513.13,4613.14
FYFSN-LTASG,–,–,–,–,–,0.7913,12792.1,0
TNVFW-YTASG,–,–,–,–,–,29.291,2409.72,10866.7
WDIRS-LTASG,–,–,–,–,–,30.8005,12792.1,9740.44
HTVRG-LTASG,–,–,–,–,–,42.3063,12792.1,12792.1
RHPSH-FTASG,–,–,–,–,–,26.7767,12792.1,6688.74
KMPST-LTASG,–,–,–,–,–,36.3405,12792.1,6396.07
YHPIS-LTASG,–,–,–,–,–,42.7806,12792.1,12792.1
SRPVY-LTASG,–,–,–,–,–,32.5397,12792.1,12792.1
SGPKL-LTASG,–,–,–,–,–,35.7561,5090.5,12792.1

Substance,"isotopic enrichment (log2(ratio)) (acc.to MMP2) [1, 6]","isotopic enrichment (log2(ratio)) (acc.to MMP2) [1, 7]","isotopic enrichment (log2(ratio)) (acc.to MMP9) [2, 8]",isotopic enrichment (log2(ratio)) [2],"isotopic enrichment (log2(ratio)) (acc.to MMP9) [2, 9]",relative probability (RP) [3],Kobs [4] [M⁻¹ s⁻¹],Kobs [5] [M⁻¹ s⁻¹]
LVVRA-HTASG,–,–,–,–,–,18.814,4082.43,5461.43
WSPSS-YTASG,–,–,–,–,–,41.6306,12792.1,3344.37
MGLAN-LTASG,–,–,–,–,–,11.5381,12792.1,951.362
SGVAG-LYSTA,–,–,–,–,–,21.512,12792.1,7015.91
GGSGN-LTVKT,–,–,–,–,–,1.504,12792.1,0
LIPTS-LTASG,–,–,–,–,–,31.9505,12792.1,12792.1
GMPLL-LRTAS,–,–,–,–,–,32.5638,8321.48,12792.1
RTPKG-LTASG,–,–,–,–,–,48.4124,12792.1,12792.1
QRPMD-LTASG,–,–,–,–,–,44.1549,12792.1,12792.1
IFARS-LTASG,–,–,–,–,–,26.1862,12792.1,12792.1
WRPFS-YTASG,–,–,–,–,–,43.4281,12792.1,12792.1
SGAYN-FQATA,–,–,–,–,–,19.0941,3438.54,12792.1
GSPLP-FITAS,–,–,–,–,–,46.6229,12792.1,12792.1
GYPAG-LRTAS,–,–,–,–,–,47.2274,12792.1,12792.1
SGPKQ-LRVTA,–,–,–,–,–,43.3387,12792.1,12792.1
SGPAS-VRNTA,–,–,–,–,–,25.8589,12792.1,2837.92
RVPVP-MTASG,–,–,–,–,–,46.3561,2038.8,9740.44
HVVAQ-LTASG,–,–,–,–,–,6.994,12792.1,551.253
GMPRS-YITAS,–,–,–,–,–,44.546,12792.1,12792.1
VKPSK-LTASG,–,–,–,–,–,38.9571,12792.1,12792.1
GLVWN-LWTAS,–,–,–,–,–,38.922,1660.66,8321.48
SGPRS-LKSTA,–,–,–,–,–,44.7764,12792.1,12792.1
